Test results taken from patent publication US9029391B2 (priority 2011, dated 2015).
Where a name gives a salt, the structure may show the parent alone.

Tested on: HIV
Test: MT4 Assay (anti-HIV activity)
Type: cell-based
Conditions: Human immunodeficiency virus 1, 96 h, read-out: HIV MT4 Assay IC50, HTLV-1 transformed cell line MT-4, cell titer glo, 10 point dose response curve
In short: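 IC50 values were fitted to 10-point dose-response series (3-4-fold dilutions, range >1000-fold), normalized to no-compound control. CellTiter-Glo read-out was taken after 96 hours in HTLV-1-transformed MT-4 cells. Cytotoxicity was measured in parallel under identical conditions.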

| SMILES | IC50 [µM] |
| --- | --- |
| Cc1ccc(-c2c(C(OC(C)(C)C)C(=O)O)n(C)c(=O)c3cc(CC(C)C)ccc23)cc1C (centres unmarked) [Example 172, [(1,1-dimethylethyl)oxy][4-(3,4-dimethylphenyl)-2-methyl-7-(2-methylpropyl)-1-oxo-1,2-dihydro-3-isoquinolinyl]acetic acid] | 0.27 |
| Cc1ccc(-c2c(C(OC(C)(C)C)C(=O)O)n(C)c(=O)c3cc(C(N)=O)ccc23)cc1C (centres unmarked) [Example 178, [7-(aminocarbonyl)-4-(3,4-dimethylphenyl)-2-methyl-1-oxo-1,2-dihydro-3-isoquinolinyl][(1,1-dimethylethyl)oxy]acetic acid] | 50 |
| Cc1ccc(-c2c(C(OC(C)(C)C)C(=O)O)n(C)c(=O)c3cc(CN)ccc23)cc1C (centres unmarked) [Example 179, [7-(aminomethyl)-4-(3,4-dimethylphenyl)-2-methyl-1-oxo-1,2-dihydro-3-isoquinolinyl][(1,1-dimethylethyl)oxy]acetic acid-TFA salt] | 50 |
| Cc1ccc(-c2c(C(OC(C)(C)C)C(=O)O)n(C)c(=O)c3cc(CNCc4ccc5c(-c6ccc(C)c(C)c6)c(C(OC(C)(C)C)C(=O)O)n(C)c(=O)c5c4)ccc23)cc1C (centres unmarked) [Example 180, 2,2′-(iminobis{methanediyl[4-(3,4-dimethylphenyl)-2-methyl-1-oxo-1,2-dihydroisoquinoline-7,3-diyl]})bis{[(1,1-dimethylethyl)oxy]acetic acid}] | 12.4 |
| Cc1ccc(-c2c(C(OC(C)(C)C)C(=O)O)n(C)c(=O)c3cc(CN4CCOCC4)ccc23)cc1C (centres unmarked) [Example 181] | 0.27 |
| Cc1ccc(-c2c(C(OC(C)(C)C)C(=O)O)n(C)c(=O)c3cc(CN(Cc4ccccn4)Cc4ccccn4)ccc23)cc1C (centres unmarked) [Example 182, 2-(7-((bis(pyridin-2-ylmethyl)amino)methyl)-4-(3,4-dimethylphenyl)-2-methyl-1-oxo-1,2-dihydroisoquinolin-3-yl)-2-(tert-butoxy)acetic acid] | 1.38 |
| Cc1ccc(-c2c(C(OC(C)(C)C)C(=O)O)n(C)c(=O)c3cc(CNCc4ccccn4)ccc23)cc1C (centres unmarked) [Example 183, 2-(tert-butoxy)-2-(4-(3,4-dimethylphenyl)-2-methyl-1-oxo-7-(((pyridin-2-ylmethyl)amino)methyl)-1,2-dihydroisoquinolin-3-yl)acetic acid] | 3.61 |
| CC(=O)NCc1ccc2c(-c3ccc(C)c(C)c3)c(C(OC(C)(C)C)C(=O)O)n(C)c(=O)c2c1 (centres unmarked) [Example 184, 2-(7-(acetamidomethyl)-4-(3,4-dimethylphenyl)-2-methyl-1-oxo-1,2-dihydroisoquinolin-3-yl)-2-(tert-butoxy)acetic acid] | 31.4 |
| CCNC(=O)NCc1ccc2c(-c3ccc(C)c(C)c3)c(C(OC(C)(C)C)C(=O)O)n(C)c(=O)c2c1 (centres unmarked) [Example 185, 2-(tert-butoxy)-2-(4-(3,4-dimethylphenyl)-7-((3-ethylureido)methyl)-2-methyl-1-oxo-1,2-dihydroisoquinolin-3-yl)acetic acid] | 37.4 |
| Cc1ccc(-c2c(C(OC(C)(C)C)C(=O)O)n(C)c(=O)c3cc(CNC(=O)C(=O)O)ccc23)cc1C (centres unmarked) [Example 186, 2-(tert-butoxy)-2-(7-((carboxyformamido)methyl)-4-(3,4-dimethylphenyl)-2-methyl-1-oxo-1,2-dihydroisoquinolin-3-yl)acetic acid] | 50 |
| Cc1ccc(-c2c(C(OC(C)(C)C)C(=O)O)n(C)c(=O)c3cc(CNS(C)(=O)=O)ccc23)cc1C (centres unmarked) [Example 187, 2-(tert-butoxy)-2-(4-(3,4-dimethylphenyl)-2-methyl-7-(methylsulfonamidomethyl)-1-oxo-1,2-dihydroisoquinolin-3-yl)acetic acid] | 22.9 |
| Cc1ccc(-c2c(C(OC(C)(C)C)C(=O)O)n(C)c(=O)c3cc(CNS(=O)(=O)N(C)C)ccc23)cc1C (centres unmarked) [Example 188, 2-(tert-butoxy)-2-(4-(3,4-dimethylphenyl)-7-(((N,N-dimethylsulfamoyl)amino)methyl)-2-methyl-1-oxo-1,2-dihydroisoquinolin-3-yl)acetic acid] | 3.7 |
| Cc1ccc(-c2c(C(OC(C)(C)C)C(=O)O)n(C)c(=O)c3cc(-c4cccn4C)ccc23)cc1C (centres unmarked) [Example 191, [(1,1′-dimethylethyl)oxy][4-(3,4-dimethylphenyl)-2-methyl-7-(1-methyl-1H-pyrrol-2-yl)-1-oxo-1,2-dihydro-3-isoquinolinyl]acetic acid] | 0.35 |
| Cc1ccc(-c2c(C(OC(C)(C)C)C(=O)O)n(C)c(=O)c3cc(-c4cnn(C)c4)ccc23)cc1C (centres unmarked) [Example 192, [(1,1-dimethylethyl)oxy][4-(3,4-dimethylphenyl)-2-methyl-7-(1-methyl-1H-pyrazol-4-yl)-1-oxo-1,2-dihydro-3-isoquinolinyl]acetic acid] | 0.35 |
| Cc1ccc(-c2c(C(OC(C)(C)C)C(=O)O)n(C)c(=O)c3cc(-c4ccoc4C)ccc23)cc1C (centres unmarked) [Example 193, [(1,1-dimethylethyl)oxy][4-(3,4-dimethylphenyl)-2-methyl-7-(2-methyl-3-furanyl)-1-oxo-1,2-dihydro-3-isoquinolinyl]acetic acid] | 1.34 |
| Cc1ccc(N(C)c2c(C(OC(C)(C)C)C(=O)O)n(C)c(=O)c3ccccc23)cc1C (centres unmarked) [Example 212, 2-(tert-Butoxy)-2-(4-((3,4-dimethylphenyl)(methyl)amino)-2-methyl-1-oxo-1,2-dihydroisoquinolin-3-yl)acetic acid] | 50 |
| CCCC(C(=O)O)c1c(-c2ccc(C)cc2C)c2ccccc2c(=O)n1C (centres unmarked) [Example 216, 2-[4-(2,4-dimethylphenyl)-2-methyl-1-oxo-1,2-dihydro-3-isoquinolinyl]pentanoic acid] | 36.6 |
| Cc1ccc(-c2c(C(CC(C)C)C(=O)O)n(C)c(=O)c3ccccc23)c(C)c1 (centres unmarked) [Example 217, 2-[4-(2,4-dimethylphenyl)-2-methyl-1-oxo-1,2-dihydro-3-isoquinolinyl]-4-methylpentanoic acid] | 13.1 |
| CCOC(C(=O)O)c1c(-c2ccc(C)cc2C)c2ccccc2c(=O)n1C (centres unmarked) [Example 218, [4-(2,4-dimethylphenyl)-2-methyl-1-oxo-1,2-dihydro-3-isoquinolinyl](ethyloxy)acetic acid] | 33.2 |
| Cc1ccc(-c2c(C(OC(C)(C)C)C(=O)O)n(C)c(=O)c3cc(-c4cn(CCO)nn4)ccc23)c(C)c1 (centres unmarked) [Example 219, [(1,1-dimethylethyl)oxy]{4-(2,4-dimethylphenyl)-7-[1-(2-hydroxyethyl)-1H-1,2,3-triazol-4-yl]-2-methyl-1-oxo-1,2-dihydro-3-isoquinolinyl}acetic acid] | 11.1 |
